≈ marks a conversion by molar mass, not a printed value.
Experiments:
S. epidermidis biofilm = assay: Biofilm prevention concentration (BPC), BisEDT and antibiotics; format: cell-based, Staphylococcus epidermidis; details: regardless of antibiotic employed
Experimental: S. epidermidis grown in TSB+2% glucose in polystyrene plates for 48 h at 37° C. Gatifloxacin (GF), clindamycin (CM), minocycline (MC), gentamicin (GM), vancomycin (VM), cefazolin (CZ), nafcillin (NC), and rifampicin (RP). […]

[1] = Uninoculated solubility control plate (drug precipitation in test media); format: physicochemical; details: uninoculated solubility control plates; BisEDT observation at 32 μg/mL
S. aureus = assay: Contaminated open fracture, rat femur critical defect model; format: in vivo; details: BT gel 5 mg/ml, 1 ml in defect, with Cefazolin 5 mgKg^−1 s.c. twice daily 3 days, day 14
From the text: Standard errors of the mean are shown as error bars. Animals euthanized early are not excluded from the analysis, however samples from one animal in group 2 have been excluded due to gross contamination.
The aim of this study was to determine whether BTs will reduce infection in a contaminated open fracture model either on their own or with antibiotics. The contaminated rat femur critical defect model is a well-accepted model and was used for the experiments described in this Example. This model offers a standardized model for comparing various possible treatments and their effects on reducing infection and/or improving healing.
Three formulations of microparticulate BTs were produced in a clinically useful hydrogel gel form as described herein.
Two treatment arms were used: in the first arm, BT was used singularly; in the second arm BT was used in conjunction with a systemic antibiotic (ABx).
Six hours after inoculation with S. aureus, the wound was debrided, irrigated with saline and 1 ml of BT gel inserted within the defect.
Six hours after inoculation with S. aureus, the wound was debrided, irrigated with saline and 1 ml of BT gel added inserted within the defect. The antibiotic used was Cefazolin at a dose equivalent to 5 mgKg^−1 delivered via sub-cutaneous injection twice daily for a total of 3-days following the injury. The first dose was administered immediately prior to debridement.
Six hours after inoculation with S. aureus, the wound was debrided and irrigated with saline. The control animals were also treated with Cefazolin as per the regime described above.
The procedure for the in vivo rat injury model was performed as described by Chen et al. (2002 J. Orthop. Res. 20:142; 2005 J. Orthop. Res. 23:816; 2006 J. Bone Joint Surg. Am. 88:1510; 2007 J. Orthop. Trauma 21:693). The rats were anesthetized and prepped for surgery. The anterolateral aspect of the femoral shaft was exposed through a 3-cm incision. The periosteum and attached muscle was stripped from the bone. A polyacetyl plate (27×4×4 mm) was placed on the anterolateral surface of the femur. The plates were predrilled to accept 0.9-mm diameter threaded Kirschner wires. The bases of these plates were formed to fit the contour of the femoral shaft. Pilot holes were drilled through both cortices of the femur using the plate as a template and threaded Kirschner wire was inserted through the plate and femur. The notches that were 6 mm apart on the plate served as a guide for bone removal. A small oscillating saw was used to create the defect while the tissue was cooled by continuous irrigation in an effort to prevent thermal damage.
Several groups of 10 animals each were inoculated with 1×10^5 CFU of S. aureus and treated with BT alone or in combination with antibiotics 6 hours post-inoculation as described above. The groups were as follows: Bis-EDT gel; MB-11 gel; MB-8-2 gel; Bis-EDT gel & Abx; MB-11 gel & Abx; MB-8-2 gel & Abx; Control (Abx alone).
Animals were euthanized 14 days after surgery and bone and hardware sent for microbiological analysis, the results of which are shown in FIG. 7.

S. aureus strains = assay: In vitro inhibition from PMMA cement bead vehicle; format: cell-based, Staphylococcus aureus; details: with and without Tobramicin and Vancomycin
E. coli = assay: Broth dilution MIC, BT-antibiotic combinations; format: cell-based; details: Escherichia coli; E. coli Ampicillin/Chloramphenicol resistant; antibiotic alone
Experimental: Materials & Methods. Susceptibility studies were performed by broth dilution in 96-well tissue culture plates (Nalge Nunc International, Denmark) in accordance with NCCLS protocols (National Committee for Clinical Laboratory Standards. (1997). Methods for Dilution Antimicrobial Susceptibility Tests for Bacteria that Grow Aerobically: Approved Standard M7-A2 and Informational Supplement M100-S10. NCCLS, Wayne, Pa., USA).
Briefly, overnight bacterial cultures were used to prepare 0.5 McFarland standard suspensions, which were further diluted 1:50 (˜2×10^6 cfu/mL) in cation-adjusted Mueller-Hinton broth medium (BBL, Cockeysville, Md., USA). […] Cultures were incubated for 24 h at 37° C. and turbidity was assessed by absorption at 630 nm using an ELISA plate reader (Biotek Instruments, Winooski, Vt., USA) according to the manufacturer's recommendations. […] Viable bacterial counts (cfu/mL) were determined by standard plating on nutrient agar.
The checkerboard method was used to assess the activity of antimicrobial combinations. The fractional inhibitory concentration index (FICI) and the fractional bactericidal concentration index (FBCI) were calculated, according to Eliopoulos et al. (Eliopoulos and Moellering, (1996) Antimicrobial combinations. In Antibiotics in Laboratory Medicine (Lorian, V., Ed.), pp. 330-96, Williams and Wilkins, Baltimore, Md., USA). […]

resistant E. coli = assay: MIC in Mueller-Hinton II broth, antibiotic + BisEDT; format: cell-based, Escherichia coli; details: Escherichia coli, read-out: Drug + BE MIC, Chloramphenicol/Ampicillin resistant E. coli; BE 0.33 μg/ml
From the text: Chloramphenicol and ampicillin resistant Escherichia coli were made sensitive to these drugs by the addition of subMIC BisEDT (Table 24).
Tetracycline resistant Escherichia coli were made sensitive to doxycycline by the addition of subMIC BisEDT (Table 25).

[2] = tested on: Staphylococcus aureus (SA, MRSA); assay: Single-point BisEDT-antibiotic combination FICI; format: cell-based
[3] = tested on: Streptococcus pneumoniae (SP, PRSP); assay: Single-point BisEDT-antibiotic combination FICI; details: PRSP 5348
Bukholderia multivorans = assay: Single-point BisEDT-antibiotic combination FICI; format: cell-based; details: Bmult 5665
Acinetobacter baumanii = assay: Single-point BisEDT-antibiotic combination FICI; format: cell-based; details: Abau 2594
Enterococcus faecalis = assay: Single-point BisEDT-antibiotic combination FICI; format: cell-based; details: E Fc 3121
Pseudomonas aeruginosa = assay: Single-point BisEDT-antibiotic combination FICI; format: cell-based; details: PA 1380
[4] = tested on: Staphylococcus aureus (MSSA, MRSA, CA-MRSA); assay: microbe, parasite or virus in culture; format: cell-based
Escherichia coli = assay: Single-point BisEDT-antibiotic combination FICI; format: cell-based
Klebsiella pneumoniae = assay: Single-point BisEDT-antibiotic combination FICI; format: cell-based; details: KP 1231
Burkholderia cepacia = assay: Single-point BisEDT-antibiotic combination FICI; format: cell-based; details: Bcep 1756
[5] = tested on: Enterococcus faecium (VSEfm, VREfm); assay: microbe, parasite or virus in culture; format: cell-based; details: vancomycin-resistant Enterococcus faecium (VREfm)
Mycobacterium smegmatis = assay: Single-point BisEDT-antibiotic combination FICI; format: cell-based; details: Msmeg 817
[6] = neutral pH; cited from earlier work

Row | Compound | FICI, single-point BisEDT-antibiotic combination ([2]; MRSA 773) | FICI, single-point BisEDT-antibiotic combination ([2]; SA 100) | FICI, single-point BisEDT-antibiotic combination [3] | FICI, single-point BisEDT-antibiotic combination (Bukholderia multivorans) | FICI, single-point BisEDT-antibiotic combination (Acinetobacter baumanii) | FICI, single-point BisEDT-antibiotic combination (Enterococcus faecalis) | FICI, single-point BisEDT-antibiotic combination (Pseudomonas aeruginosa) | FICI, single-point BisEDT-antibiotic combination (Escherichia coli; EC 2232) | FICI, single-point BisEDT-antibiotic combination (Klebsiella pneumoniae) | FICI, single-point BisEDT-antibiotic combination (Burkholderia cepacia) | also measured
1 | C1C[S][Bi]([S]CC[S][Bi]2[S]CC[S]2)[S]1 [BisEDT, bismuth-1,2-ethanedithiol] | – | – | – | – | – | – | – | – | – | – | Biofilm at 0.1 μg/ml BisEDT (S. epidermidis biofilm): no biofilm was detected; Solubility in MIC test media [1]: trace precipitate; S. aureus infection detected on hardware, effect on Cefazolin activity (S. aureus): did not appear to affect Cefazolin activity; S. aureus infection of injured bone, effect on Cefazolin activity (S. aureus): enhanced; Effect on S. aureus strains in vitro from PMMA cement beads (S. aureus strains): inhibitory effects
2 | O=C(N[C@H](CO)[C@H](O)c1ccc([N+](=O)[O-])cc1)C(Cl)Cl [CM, chloramphenicol] | – | – | – | – | – | – | – | – | – | – | MIC (E. coli): 220 µg/mL; MIC (resistant E. coli): 12.7 µg/mL
3 | C[C@@H](O)[C@H]1C(=O)N2C(C(=O)O)=C(SCCN=CN)C[C@H]12 [Imipenem] | 1.48 | 0.67 | 0.43 | 1.23 | 0.81 | 0.73 | 1.12 | 1.29 | 1.23 | 0.73 | MIC90 ([4]; MSSA clinical isolates): 0.03 µg/mL (≈ 0.1 µM); MIC ([4]; S. aureus 29213, one value on a single run, one dilution below published QC range, read-out: MIC, quality control strain): 0.008 µg/mL (≈ 0.0267 µM); FICI, single-point BisEDT-antibiotic combination (Escherichia coli; EC 102): 1.11
4 | CC(=O)NC[C@H]1CN(c2ccc(N3CCOCC3)c(F)c2)C(=O)O1 [Linezolid] | 1.23 | 1.23 | 1.11 | – | – | 1.23 | – | – | – | – | MIC90 [5]: 2 µg/mL (≈ 5.93 µM)
5 | [H]/N=C(/N)N[C@H]1[C@H](O)[C@@H](O)[C@H](O[C@@H]2O[C@@H](C)[C@](O)(C=O)[C@H]2O[C@@H]2O[C@@H](CO)[C@H](O)[C@@H](O)[C@@H]2NC)[C@@H](N/C(N)=N\[H])[C@@H]1O [Streptomycin] | 0.95 | – | 0.66 | 1.12 | 2.62 | 0.61 | 1.98 | 1.29 | 1.04 | 1.37 | FICI, single-point BisEDT-antibiotic combination (Mycobacterium smegmatis): 1.13
6 | Zinc pyrithione | – | – | – | – | – | – | – | – | – | – | Solubility in water [6]: 8 ppm
